Results taken from PMC11808397, “Development of selective nanomolar cyclic peptide ligands as GBA1 enzyme stabilisers” (RSC Chemical Biology, 2025).
Positions of bridges follow the written chain, without caps; N, C: chain ends. Non-standard residues stand in square brackets, D forms with d. Residues, ends and D or L forms follow the SMILES beside them.

How the values were obtained:
[1] = molecular target: T1, recombinant human GBA1 (rhGBA1, Cerezyme) (Homo sapiens, UniProt P04062, R534H); assay: In vitro rhGBA1 inhibition, 4-MU-β-D-glucopyranoside hydrolysis; assay type: biochemical; settings: Cerezyme 14 nM, 3.7 mM 4-MU-β-D-glucopyranoside, McIlvaine pH 5.2, 30 min pre-incubation 37 °C + 30 min, mean ± SD from 3 technical triplicates; for IC50: SD
T1 construct: purchased Cerezyme
T1 sequence (P04062 40-536 R534H): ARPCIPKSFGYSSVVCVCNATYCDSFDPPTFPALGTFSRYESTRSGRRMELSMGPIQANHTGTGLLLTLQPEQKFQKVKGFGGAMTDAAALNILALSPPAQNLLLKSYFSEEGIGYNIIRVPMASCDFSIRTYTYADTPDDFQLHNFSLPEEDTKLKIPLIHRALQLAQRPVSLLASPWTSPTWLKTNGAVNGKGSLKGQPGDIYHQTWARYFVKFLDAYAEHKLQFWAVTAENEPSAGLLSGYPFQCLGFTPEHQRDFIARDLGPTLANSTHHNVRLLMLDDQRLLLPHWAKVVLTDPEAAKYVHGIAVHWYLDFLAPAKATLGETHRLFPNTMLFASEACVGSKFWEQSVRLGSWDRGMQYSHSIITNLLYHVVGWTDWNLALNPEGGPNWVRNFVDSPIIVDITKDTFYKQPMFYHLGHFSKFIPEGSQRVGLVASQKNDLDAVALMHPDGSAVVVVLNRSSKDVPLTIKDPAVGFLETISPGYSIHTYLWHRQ
Procedure: Based on the pull-down validation, a set of eight cyclic peptides (L1, L2, L4, L6, D1, D8, D12 and D13) were identified, synthesized, and evaluated for their inhibitory potency against recombinant human GBA1 (rhGBA1, Cerezyme®) and their selectivity over human β-glucosidases GBA2 and GBA3. Half-maximum inhibitory concentration (IC50) values for β-glucosidases were determined in vitro by measuring hydrolysis of 4-methylumbelliferyl-β-D-glucopyranoside (4-MU-β-D-Glu) fluorogenic substrate. […]
Pure product fractions were pooled, lyophilized, and dissolved again in DMSO before concentration was determined by A280 using a sample diluted in phosphate buffer at pH 7.4 and extinction coefficients determined from the sequence using the Expasy ProtParam online tool (https://web.expasy.org/protparam/). […]
2.5. In vitro IC50 and Ki measurements
For GBA1, IC50 values were determined using the recombinant human GBA1 (rhGBA1, Cerezyme) following described procedures.4 Enzyme activity was measured using 3.7 mM 4-methylumbeliferone (4MU)-β-D-glucopyranoside in 150 mM McIlvaine buffer pH 5.2 supplemented with 0.1% bovine serum albumin (BSA) (w/v), 0.1% Triton X-100 (v/v), and 0.2% sodium taurocholate (w/v). Varying concentrations of inhibitor (12.5 µL) were incubated with 12.5 µL of enzyme (final concentration 14 nM) at 37 °C for 30 min. Following this, 100 µL of 4MU substrate was added and the samples were again incubated at 37 °C for 30 min. The reaction was quenched using excess 1 M NaOH-glycine (200 µL, pH 10.3) and 4MU fluorescence was measured using a LS55 fluorimeter (λEx 366 nm and λEm 445 […]
30 min at 37 °C (12.5 µL) and subsequently incubated with the tested ligands at a range of concentrations for 30 min at 37 °C (12.5 µL), after which 100 µL 4MU-β-D-glucopyranoside was added for a final incubation of 30 min at 37 °C, quenched with 200 µL 1 M NaOH-glycine (pH 10.3) and fluorescence was measured. IC50 values were calculated using GraphPad Prism version 8.

Human dermal fibroblasts = assay: Toxicity / morphology of human dermal fibroblasts; assay type: cell-based; settings: 3 hours, peptide concentrations above 10 μM (10 and 100 μM)
Procedure: We further investigated GBA1 inhibition in cells. Human dermal fibroblasts were initially incubated with peptide concentrations ranging from 0.1 μM (from 0.001 μM for L4, D1 and D12) to 100 μM of each cyclic peptide for […]. […] To further confirm the inability of these peptides to cross the cell membrane, we conducted in situ competitive activity-based protein profiling (cABPP) experiments using RAW 264.7 monocyte/macrophage-like cells. […] RAW 264.7 cells were then treated with increasing concentrations of cyclic peptides (0, 0.1, 1, 10, and 100 μM) for 4 hours, followed by exposure to a cell-penetrant Bodipy red broad spectrum GBA activity-based probe (ABP), JJB75[58] at 10 nM for 2 hours (Fig. S5 for chemical structures, ESI ^†). […] This cABPP experiment further confirms that the peptides are unable to cross the cell membrane (Fig. S6, ESI ^†).

[2] = molecular target: T1, recombinant human GBA1 (rhGBA1, Cerezyme); assay: Thermostability of rhGBA1, label-free differential scanning fluorimetry (Tycho NT.6); assay type: binding; settings: rhGBA1 at 1 μM, 20 mM HEPES pH 7.0, 100 mM NaCl, 0.5% DMSO, 2 h room temperature; N. D. = not determined due to a lack of stabilisation effect
Procedure: Samples were incubated at room temperature for 2
hours before measurement in the Tycho NT6.
Thermostability assays in rhGBA (Cerezyme)
Varying concentrations of peptides were incubated with 1 µM rhGBA1 in 20 mM HEPES pH 7.0 with 100 mM NaCl, with a final DMSO concentration of 0.5 %, for 2 hours at room temperature. Melting
curves were determined in triplicate using the Tycho NT.6 (NanoTemper), according to manufacturer

[3] = Intrinsic stability of cyclic peptides in plasma; assay type: in vitro ADME; settings: 0.1 μM in human plasma, 2 h at 37°C, then rhGBA1 10 nM 30 min, 4-MU activity read-out; n=3, technical duplicates
Procedure: Specifically, high concentrations of all peptides (10–1 μM) led to enzyme binding but also GBA1 inhibition after short incubations (0 to 30 minutes). […] To discard potential degradation of D8 and D12 during plasma experiments, the peptides were incubated in plasma at 0.1 μM for 2 hours, followed by the addition of rhGBA1 to measure its activity. This was compared to controls where D8 and D12 were added to plasma and directly tested for GBA1 activity.
Selective Cyclic Peptide Ligands as GBA1 Stabilizers Katzy et al.
Figure S10. Cerezyme (10 nM) stability in McIlvaine buffer pH 5.2 or in plasma of a healthy individual. GBA1 activity measured in n=3 replicates, in technical duplicates.
Figure S11. Intrinsic compounds stability of cyclic peptides D8 and D12 (0.1 µM) in plasma. rhGBA1 (10 nM) was added to compounds pre-incubated in plasma for 2h at 37°C or readily dissolved in DMSO, and incubated for 30 min, after which 4-MU activity was measured. Error ranges depict standard deviations from n=3 replicates, measured in technical duplicates.
Table S1. IC50 values for GBA1 inhibition in fibroblast lysates. Cells were treated with the peptides at increasing concentrations for 16 h, washed with PBS and homogenized. Reported values are mean ± standard deviation from 3 technical triplicates. N.D.: not determined.
Peptide GBA1 in fibroblast lysates
(1 picture or pasted object on this page, not shown here)

| Structure (SMILES) | rhGBA1 IC50 [1] | IC50 [1] [nM] | EC50 [2] [nM] | toxicity to the cells (morphology) (Human dermal fibroblasts) | peptide stability in plasma (inhibitory activity after pre-incubation) [3] |
| --- | --- | --- | --- | --- | --- |
| CC(C)C[C@H](NC(=O)[C@@H](NC(=O)[C@H](CCCNC(=N)N)NC(=O)[C@@H]1CSCC(=O)N[C@H](Cc2ccc(O)cc2)C(=O)N[C@@H]([C@@H](C)O)C(=O)N2CCC[C@H]2C(=O)NCC(=O)N[C@@H](Cc2ccc(O)cc2)C(=O)N[C@@H](C(C)C)C(=O)N[C@@H](Cc2ccc(O)cc2)C(=O)N1)C(C)C)C(=O)N[C@@H](CCCCN)C(=O)N[C@@H](Cc1ccc(O)cc1)C(=O)N[C@@H](CS)C(N)=O [D8] ({CH2CO}-[dY]TPGYVYCRVLKYC-NH2; thioether N-8) |  | 12 ± 11 | 2200 ± 500 | still attached and otherwise looked healthy | retained their inhibitory activity against rhGBA1 |
| CC[C@H](C)[C@@H]1NC(=O)[C@H](CO)NC(=O)[C@H](CS)NC(=O)CNC(=O)CNC(=O)[C@H](CC(C)C)NC(=O)[C@H](Cc2ccc(O)cc2)NC(=O)[C@H](C(C)C)NC(=O)[C@H](CC(C)C)NC(=O)[C@H](CCCNC(=N)N)NC(=O)[C@@H]2CCCN2C(=O)[C@H](Cc2ccc(O)cc2)NC(=O)CSC[C@@H](C(N)=O)NC(=O)[C@H](CCC(=O)O)NC(=O)[C@H](CC(C)C)NC(=O)[C@H](CC(C)C)NC1=O [L1] ({CH2CO}-YPRLVYLGGCSILLEC-NH2; thioether N-16) | high micromolar range | 138000 ± 55800 |  |  |  |
| CC[C@H](C)[C@H](NC(=O)[C@H](CCCNC(=N)N)NC(=O)[C@@H]1CSCC(=O)N[C@@H](Cc2ccc(O)cc2)C(=O)N[C@@H](C)C(=O)N[C@@H](Cc2ccc(O)cc2)C(=O)N[C@@H](Cc2c[nH]c3ccccc23)C(=O)N[C@@H](Cc2c[nH]c3ccccc23)C(=O)N[C@@H](CC(C)C)C(=O)N1)C(=O)N1CCC[C@H]1C(=O)N[C@@H](Cc1c[nH]c2ccccc12)C(=O)N[C@@H](CC(C)C)C(=O)N[C@@H](CO)C(=O)N[C@H](C(N)=O)C(C)C [L2] ({CH2CO}-YAYWWLCRIPWLSV-NH2; thioether N-7) |  | 340 ± 160 | 2000 ± 500 |  |  |
| CC[C@H](C)[C@@H]1NC(=O)[C@H](Cc2ccc(O)cc2)NC(=O)CSC[C@@H](C(N)=O)NC(=O)[C@H](Cc2c[nH]c3ccccc23)NC(=O)[C@H](CCC(N)=O)NC(=O)[C@H]([C@@H](C)CC)NC(=O)[C@H]([C@@H](C)CC)NC(=O)[C@@H]2CCCN2C(=O)[C@H](C(C)C)NC(=O)[C@H](Cc2ccc(O)cc2)NC(=O)[C@H](Cc2c[nH]c3ccccc23)NC(=O)[C@H](CO)NC1=O [L6] ({CH2CO}-YISWYVPIIQWC-NH2; thioether N-12) |  | 5660 ± 2040 |  |  |  |

These reach a lower IC50 [1]. Values come first.

| rhGBA1 IC50 [1] | IC50 [1] [nM] | EC50 [2] [nM] | Structure (SMILES) | toxicity to the cells (morphology) (Human dermal fibroblasts) | peptide stability in plasma (inhibitory activity after pre-incubation) [3] |
| --- | --- | --- | --- | --- | --- |
| low nanomolar | 5 ± 3 |  | CC[C@H](C)[C@H](NC(=O)[C@H](CC(C)C)NC(=O)[C@H](Cc1ccc(O)cc1)NC(=O)[C@H](Cc1ccc(O)cc1)NC(=O)[C@@H]1CSCC(=O)N[C@H](Cc2ccc(O)cc2)C(=O)N[C@@H](CCCNC(=N)N)C(=O)N[C@@H](C(C)C)C(=O)N1)C(=O)N[C@H](C(=O)N[C@H](C(=O)N[C@@H](CC(C)C)C(=O)N[C@@H](CC(=O)O)C(=O)N[C@@H](CS)C(N)=O)C(C)C)[C@@H](C)O [D1] ({CH2CO}-[dY]RVCYYLITVLDC-NH2; thioether N-4) |  |  |
| low nanomolar | 4 ± 4 | 1900 ± 400 | CC(C)C[C@@H]1NC(=O)CNC(=O)[C@H](CC(C)C)NC(=O)[C@@H](Cc2ccc(O)cc2)NC(=O)CSC[C@@H](C(N)=O)NC(=O)[C@H](CO)NC(=O)[C@H](CCCCN)NC(=O)[C@H](CC(C)C)NC(=O)[C@H](Cc2ccccc2)NC(=O)[C@H](CCCNC(=N)N)NC(=O)[C@H](Cc2ccc(O)cc2)NC(=O)[C@H](Cc2c[nH]c3ccccc23)NC1=O [D12] ({CH2CO}-[dY]LGLWYRFLKSC-NH2; thioether N-12) | still attached and otherwise looked healthy | retained their inhibitory activity against rhGBA1 |
| low nanomolar | 9 ± 4 | 2600 ± 1100 | CC(C)C[C@@H]1NC(=O)CNC(=O)[C@H](Cc2ccccc2)NC(=O)[C@H](CC(C)C)NC(=O)[C@@H]2CCCN2C(=O)[C@H](Cc2ccc(O)cc2)NC(=O)CSC[C@@H](C(=O)N2CCC[C@H]2C(=O)N[C@@H](CC(N)=O)C(=O)N[C@@H](Cc2c[nH]c3ccccc23)C(=O)N[C@@H](Cc2ccccc2)C(=O)N2CCC[C@H]2C(=O)N[C@@H](Cc2ccc(O)cc2)C(=O)N[C@@H](CCC(N)=O)C(=O)N[C@@H](CS)C(N)=O)NC(=O)[C@H](CO)NC(=O)[C@H](Cc2ccccc2)NC1=O [L4] ({CH2CO}-YPLFGLFSCPNWFPYQC-NH2; thioether N-9) |  |  |
